Key:
H1299 cells = experiment: Clonogenic survival assay, H1299 NSCLC cells; format: cell-based, human; conditions: agent added before and/or during 1 h ascorbate exposure
Method: (§1) Treatment conditions for individual experiments are as described in the figure legends and summarized in the Supplemental Experimental Procedures.
(§2) 1-2×10^5 cells were plated in 60 mm cell culture dishes and grown in their respective media for 48 h before exposed to experimental conditions. […] For AdGPx1 experiments, cells were supplemented with 50 nM sodium selenite following transduction and throughout clonogenic growth. […] After treatment, cells were washed with PBS and clonogenic assay was completed in their respective media. Briefly, floating and attached cells were collected and total cells per plate were counted. An experimentally derived number of cells were plated into each well of a 6-well cell culture plate in their respective media. For HEL92.1.7 suspension cells, cells were seeded in a top layer of 0.4% (w/v) agarose to allow for quantifiable colony formation. […] Normalized survival fractions were calculated by comparing plating efficiencies of each treatment group against the control group within a given experiment.

NCI-H292 cells = experiment: Clonogenic survival assay, NCI-H292 NSCLC cells; format: cell-based, human; conditions: for effect of the agent on ascorbate toxicity (clonogenic survival): agent added before and/or during 1 h ascorbate exposure; for effect of the intracellular agent on ascorbate toxicity (clonogenic survival): 3 h pre-incubation, washed prior to ascorbate ('intracellular'), 200 μM DFO/1 mM DTPA, 1 mM EDTA or 250 μM FAS
Method: as §1, §2

cancer cells = conditions: following exposure
[1] = system: human non-small cell lung cancer cells; experiment: Clonogenic cell killing of lung cancer cells by ascorbate with chelators (cell line not given); format: cell-based
NHAs = experiment: Cellular labile iron pool (Calcein-AM flow cytometry), NHAs; format: cell-based, human; conditions: 100 μM or 250 μM FAS for 3 h
Method: The labile iron pool (LIP) was visualized using the fluorescent dye Calcein-AM as previously described (Epsztejn et al., 1997) with modifications. After labeling, samples were divided into two flow cytometry sample tubes, to which 100 μM 2′,2′-bipyridyl (BIP) was added to one tube and analyzed by flow cytometry. BIP tubes were incubated for at least 15 minutes before analysis to allow for full chelation of intracellular labile iron. The LIP (A.U.)=MFIBIP−MFINoBIP was normalized against the control samples to calculate the relative labile iron pool.
The labile iron pool (LIP) was visualized using the fluorescent dye Calcein-AM as previously described with modifications (Epsztejn et al., 1997). Briefly, after sample treatment, cells were trypsinized, spun at 1,200 rpm for 5 min, and resuspended at approximately 1×10^6 cells mL-1 in 500 nM Calcein-AM in PBS. Samples were incubated for 15 min at 4% O2 in a humidity controlled environment (37° C., 5% CO2). Subsequently, samples were pelleted, washed in PBS, and resuspended in 1 mL PBS before dividing each sample into two flow cytometry sample tubes, to which 100 μM 2′,2′-bipyridyl (BIP) was added to one tube. Samples were kept at room temperature and analyzed on a LSR II Flow Cytometer (BD Biosciences; λex=488 nm, λem=515/20 nm). […]

NHA = conditions: FAS 3 h, washed, then ascorbate 1 h
Method: After treatment, cells were washed with PBS and clonogenic assay was completed in their respective media as previously described (Fath et al., 2011). Treatment conditions for individual experiments are as described in the figure legends and summarized in the Supplemental Experimental Procedures.
as §2, with “formation. After sufficient time (7-12 days, cell type-dependent), cells were fixed in 70% ethanol and stained with a Brilliant Blue methanol solution.” for “formation.”

U87 cells = experiment: Clonogenic survival assay, U87 GBM cells; format: cell-based, human; conditions: agent added before and/or during 1 h ascorbate exposure
Method: as §1, §2

U118 cells = experiment: Clonogenic survival assay, U118 GBM cells; format: cell-based, human; conditions: agent added before and/or during 1 h ascorbate exposure
Method: as §1, §2

O=CC[C@@H](O)[C@H](O)[C@H](O)CO [2-DG, 2-deoxy-D-glucose]
effect of the agent on ascorbate toxicity (clonogenic survival) (H1299 cells): did not suppress ascorbate toxicity
effect of the agent on ascorbate toxicity (clonogenic survival) (NCI-H292 cells): did not suppress ascorbate toxicity

O=C(O)CN(CCN(CC(=O)O)CC(=O)O)CC(=O)O [EDTA, ethylenediaminetetraacetic acid]
cellular retention of 14C labeled EDTA (cancer cells): retained with cancer cells following exposure
effect of EDTA on cytotoxicity of pharmacological ascorbate ([1]; EDTA 1 mM and greater, cell culture): significantly enhance the cytotoxicity of pharmacological ascorbate
enhanced ascorbate toxicity after EDTA pretreatment and wash-out ([1]; EDTA pretreatment followed by washing out): sufficient to get enhanced toxicity
clonogenic cell survival ([1]; high dose EDTA + pharmacological ascorbate + standard-of-care chemotherapy vs standard of care alone, two NSCLC cell lines): decreases clonogenic cell survival
effect of iron chelators on ascorbate toxicity / response to therapy (FIG. 8) ([1]; lung cancer cells treated with ascorbate and iron chelators): enhance responses to cancer therapy
effect of the intracellular agent on ascorbate toxicity (clonogenic survival) (NCI-H292 cells): enhanced ascorbate toxicity

O=S(=O)([O-])[O-].O=S(=O)([O-])[O-].[Fe+2].[NH4+].[NH4+] [FAS, ferrous ammonium sulfate]
cellular LIP after FAS (NHAs): increases the LIP
effect of the agent on ascorbate toxicity (clonogenic survival) (NHA): sensitizes NHAs to ascorbate toxicity
effect of the intracellular agent on ascorbate toxicity (clonogenic survival) (NCI-H292 cells): sensitized cancer cells to ascorbate

B1: PEG-catalase: polyethylene glycol conjugated catalase which converts H2O2 into H2O and O2 (conjugate, UniProt P00432 2-527, looked up)
Catalase: ADNRDPASDQMKHWKEQRAAQKPDVLTTGGGNPVGDKLNSLTVGPRGPLLVQDVVFTDEMAHFDRERIPERVVHAKGAGAFGYFEVTHDITRYSKAKVFEHIGKRTPIAVRFSTVAGESGSADTVRDPRGFAVKFYTEDGNWDLVGNNTPIFFIRDALLFPSFIHSQKRNPQTHLKDPDMVWDFWSLRPESLHQVSFLFSDRGIPDGHRHMNGYGSHTFKLVNANGEAVYCKFHYKTDQGIKNLSVEDAARLAHEDPDYGLRDLFNAIATGNYPSWTLYIQVMTFSEAEIFPFNPFDLTKVWPHGDYPLIPVGKLVLNRNPVNYFAEVEQLAFDPSNMPPGIEPSPDKMLQGRLFAYPDTHRHRLGPNYLQIPVNCPYRARVANYQRDGPMCMMDNQGGAPNYYPNSFSAPEHQPSALEHRTHFSGDVQRFNSANDDNVTQVRTFYLKVLNEEQRKRLCENIAGHLKDAQLFIQKKAVKNFSDVHPEYGSRIQALLDKYNEEKPKNAVHTYVQHGSHLSAREKANL
modifications: PEG conjugate
notes: polyethylene glycol conjugated catalase which converts H2O2 into H2O and O2
effect of the agent on ascorbate toxicity (clonogenic survival) (NCI-H292 cells): inhibited cancer cell killing by ascorbate

B2: catalase: exogenous bovine catalase, 50 U mL^−1, added with ascorbate (protein, UniProt P00432 2-527, looked up)
Catalase: B1 Catalase
effect of the agent on ascorbate toxicity (clonogenic survival) (U87 cells): inhibited
effect of the agent on ascorbate toxicity (clonogenic survival) (H1299 cells): inhibited
effect of the agent on ascorbate toxicity (clonogenic survival) (NCI-H292 cells): inhibited
effect of the agent on ascorbate toxicity (clonogenic survival) (U118 cells): inhibited
